Columns and labels:
SW1 cells = assay: cells; type: cell-based, mouse; conditions: for Activity or EC50 (μM) in SW1 cells: active/inactive wording, concentration given in cell
Description: (§1) Cell lines. Mouse melanoma (SW1) and human melanoma (LU1205) cells were maintained in DMEM supplemented with 10% FBS, L-glutamine and antibiotics. The human melanoma cell lines MEWO and WM115 were maintained in RPMI supplemented with 10% FBS and antibiotics. Primary mouse melanocytes were cultured in F-12 media supplemented with 10% FBS, antibiotics, IBMX (isobuthyl-methylxantine), bovine pituitary extract, and TPA.
Mitochondrial activity and apoptosis. Cells were exposed to the chemicals for 12-48 hours as indicated in Results. To measure changes in mitochondrial activity reflective of general cell viability, the ATPLITE ATP detection assay was used according to the manufacturer's recommendations (Perkin Elmer). Apoptosis analysis was performed by flow cytometry of PI-stained cells. The percentage of cells to the left of the diploid G0/1 peak, characteristic of hypodiploid cells that have partially lost DNA, was calculated as percentage of apoptotic cells (Bhoumik et al., PNAS 101:4222-7, 2004). Analysis of changes in Caspase 8 expression pattern was performed using immunoblot analysis. […]
Characterization of CSL and AIGA effects on mouse melanoma cells. The structures of AIGA and CSL are depicted in FIGS. 1a and 1b. AIGA was tested for cytotoxicity at concentrations ranging between 0.1 and 2 μM, whereas CSL was used at a concentration of 0.01 to 0.3 μM. SW1 cells or normal melanocytes were seeded on 96 well plates and 24 h late, cells were treated with the indicated concentrations of ATF2 50-100 peptide, AIGA, or CSL for 20 h. ATF2 50-100 peptide (cloned in mammalian expression vector in frame with penetratin was transfected with the aid of lipofectamine) was used as a positive control. ATP levels were used as an indicator of cell viability and were measured using the ATPLITE ATP detection assay kit. The number of surviving cells upon AIGA treatment was normalized to the number of surviving cells under the control treatment, and the normalized number was designated as the “% Viability.” Results shown in FIGS. 1c-1f represent 3 experiments. Treatment of SW1 melanoma cells with 1 μM of AIGA reduced the viability of melanoma cells to 10%, (FIG. 1c). Treatment of the SW1 cells with 0.05 μM of CSL reduced the viability of melanoma cells to 50%, and 0.1 μM reduced it to 10% (FIG. 1d). […] Normal melanocytes and fibroblasts were used as a control.
Thus, the two compounds were evaluated to determine if they require JNK activity for their effects on melanoma cells. To this end, the ability of AIGA or CSL to affect the viability of melanoma cells in the presence of a JNK inhibitor was tested. SW1 cells, with or without a 30-minute pretreatment with the JNK inhibitor SP600125 (10 μM), were contacted with AIGA or CSL at the indicated concentrations for 20 h. ATP levels were used to measure the cell viability using the ATPLITE kit. The number of surviving cells upon AIGA or CSL treatment was normalized to the number of surviving cells under the control treatment, and the normalized number was designated as the “% Viability.” Shown are representative results from 2 experiments. […] Of note, inhibition of JNK activity was more pronounced at lower concentrations of CSL compared with AIGA. […] To assess whether these compounds affect JNK activity, changes in JNK phosphorylation on residues 183/185, which are required for its kinase activity, were monitored. Western blot analysis for JNK phosphorylation on residues 183/185 was performed on protein extracts that were prepared from cells treated with AIGA at concentrations of 0.5 μM, 1.0 μM, and 2.0 μM and a control with no AIGA treatment. Duplicate samples were treated with JNK inhibitor (SP600125). Total level of JNK was analyzed in parallel. […]

WM793 cells = assay: WM793 melanoma cell viability; type: cell-based, human; conditions: active/inactive wording, concentration given in cell
Description: (§2) Mitochondrial activity and apoptosis. Cells were exposed to the chemicals for 12-48 hours as indicated in Results. To measure changes in mitochondrial activity reflective of general cell viability, the ATPLITE ATP detection assay was used according to the manufacturer's recommendations (Perkin Elmer). Apoptosis analysis was performed by flow cytometry of PI-stained cells. The percentage of cells to the left of the diploid G0/1 peak, characteristic of hypodiploid cells that have partially lost DNA, was calculated as percentage of apoptotic cells (Bhoumik et al., PNAS 101:4222-7, 2004). Analysis of changes in Caspase 8 expression pattern was performed using immunoblot analysis.

[1] = Tolerability of administration to mice; type: in vivo, mouse; conditions: daily administration, doses up to 1 mg/kg
Description: (§3) To assess the ability of CSL and CSL derivatives to affect the tumorigenicity and metastasis of melanoma, the mouse SW1 cell lines were used in syngeneic models. Injection of SW1 melanoma cells subcutaneously into C3H mice was followed by daily injections of CSL intraperitoneally (IP). […] Briefly, SW1 cells that stably express GFP were injected s.c into C3H mice. When the tumor reached the size of 50 mm^3, the vehicle, CSL (1 mg/kg), CA16 (0.5 mg/kg) or CA19 (0.5 mg/kg) were administered i.p, every second day for a period of 24 days. Tumor size was measured at the indicated times. Data presented in FIG. 6b represents two experiments.

SW1 tumors = assay: SW1 tumor growth in syngeneic C3H mice; type: in vivo, mouse; conditions: 0.5 mg/kg i.p. every second day for 24 days
Description: (§4) Tumor growth and metastasis in vivo. GFP-expressing SW1 cells were trypsinized, resuspended in PBS, and injected subcutaneously (1×10^6) into the lower flank of 6 to 7-week-old mice. When tumors reached a size of about 50 mm^3, the indicated compounds (100 μL of the vehicle—10% DMSO, 70% Cremophor/ethanol (3:1), and 20% PBS and 1.0 mg/kg of celastrol or 0.5 mg/kg of the derivatives CA16, CA19) were injected i.p. every alternate day. Body weight and tumor growth were monitored every 2 days. GFP-expressing SW1 tumors were monitored in vivo on shaved mice with a light box illuminated by blue light fiber optics (Lightools Research; Encinitas, Calif.), and imaging was carried out with a digital camera (Nikon D100). Tumors were measured for up to 3 weeks. For metastases studies, LU1205 cells (1×10^6) were injected i.v. into the lateral tail vein of nude mice. At the end of the experiment, the lungs and tumors were excised and weighed. To detect metastatic lesions, lungs were fixed in formalin, embedded in paraffin and subjected to hematoxylin and eosin staining.
as §3

[2] = tested on: Human melanoma LU1205 cells; assay: LU1205 lung metastasis in nude mice; type: in vivo, mouse; conditions: compound every second day, analysis 60 days after injection
Description: as §4
The effect of CSL and CSL derivatives, CA16 and CA19, on the metastatic capacity of melanoma cells was then determined. Human melanoma LU1205 cells were injected into the tail vein of nude mice, followed by administration of the compounds every second day. This approach allows monitoring of changes in the number of lesions formed on the lungs, a primary organ for tumor cell growth under this experimental approach. Analysis performed 60 days following injection determined changes in the number and size of metastatic lesions in each of the experimental groups.

SW1 mouse melanoma = assay: SW1 metastatic lesions in syngeneic C3H mice; type: in vivo; conditions: SW1 cells s.c. in C3H mice
Description: as §4
To further assess the impact of these compounds on the development of metastatic lesions, the SW1 mouse melanoma model using the syngeneic C3H strain was employed. Subcutaneous injection of SW1 cells results in tumor formation at the site of injection followed by metastasis to different sites within 6-8 weeks.

WM115 cells = assay: WM115 melanoma cell viability; type: cell-based, human; conditions: active/inactive wording, concentration given in cell
Description: as §1, §2
The effects of CSL and AIGA on the human melanoma cell lines WM115 and MEWO were assessed. AIGA reduced the viability of the human melanoma cultures when added at a concentration of 0.5-2 μM (FIG. 5a and FIG. 5c) whereas CSL reduced their viability at a concentration of 0.1 μM-2 μM in WM115 cells (FIG. 5b) and 0.05 μM-2 μM in MeWO cells (FIG. 5d).

Row | Compound | Activity or EC50 (μM) in SW1 cells (SW1 cells) | Activity or EC50 (μM) in WM793 cells (WM793 cells) | Activity or EC50 (μM) in WM115 cells (WM115 cells) | other results
1 | Cc1c(O)c(O)cc2c1CC=C1[C@@]2(C)CC[C@@]2(C)[C@@H]3C[C@](C)(C(=O)O)CC[C@]3(C)CC[C@]12C [Dihydrocelastrol, dihydrocelastrol, reference compound] | inactive |  |  | 
2 | CC1=C(O)C(=O)C=C2C1=CC=C1C2(C)CCC2(C)C3CC(C)(C(=O)NC(C)C)CCC3(C)CCC12C (centres unmarked) [CA04] | active | inactive |  | 
3 | CC1=C(O)C(=O)C=C2C1=CC=C1C2(C)CCC2(C)C3CC(C)(C(=O)OCc4ccccc4)CCC3(C)CCC12C (centres unmarked) [CA16] |  |  |  | toxicity or discomfort in mice [1]: did not result in toxicity or any noticeable discomfort; decrease in tumor size (SW1 tumors): about 50%; 1-2 mm and mediastinal lesions [2]: some activity was observed; development of large lung lesions [2]: no impact; development of small sized lesions (SW1 mouse melanoma): opposite effect; metastatic lesions (SW1 mouse melanoma): somewhat active
4 | COC(=O)COC(=O)C1(C)CCC2(C)CCC3(C)C4=CC=C5C(=CC(=O)C(O)=C5C)C4(C)CCC3(C)C2C1 (centres unmarked) [CA15] | Inactive |  |  | 
5 | COCCNC(=O)C1(C)CCC2(C)CCC3(C)C4=CC=C5C(=CC(=O)C(O)=C5C)C4(C)CCC3(C)C2C1 (centres unmarked) [CA07] | active |  | inactive | 
6 | CC1=C(O)C(=O)C=C2C1=CC=C1C2(C)CCC2(C)C3CC(C)(C(=O)NCc4ccccc4)CCC3(C)CCC12C (centres unmarked) [CA02] | inactive | inactive | inactive | 
7 | CC1=C(O)C(=O)C=C2C1=CC=C1C2(C)CCC2(C)C3CC(C)(C(=O)OC(C)C)CCC3(C)CCC12C (centres unmarked) [CA19] |  |  |  | toxicity or discomfort in mice [1]: did not result in toxicity or any noticeable discomfort; reduction of tumor growth (SW1 tumors): 5 fold; growth of large, medium and small sized lesions in the lungs [2]: efficient in inhibiting growth of large medium and small sized lesions in the lungs; metastatic lesions (SW1 mouse melanoma): potently exhibit the ability to inhibit large as well as small metastatic lesions, with the exception of the 1-2 mm range
8 | CC1=C(O)C(=O)C=C2C1=CC=C1C2(C)CCC2(C)C3CC(C)(C(=O)N(C)C)CCC3(C)CCC12C (centres unmarked) [CA05] | active | inactive |  | 
9 | CC1=C(O)C(=O)C=C2C1=CC=C1C2(C)CCC2(C)C3CC(C)(C(=O)N4CCOCC4)CCC3(C)CCC12C (centres unmarked) [CA08] | inactive | inactive | inactive | 
10 | COc1ccc(CNC(=O)C2(C)CCC3(C)CCC4(C)C5=CC=C6C(=CC(=O)C(O)=C6C)C5(C)CCC4(C)C3C2)cc1 (centres unmarked) [CA01] | active |  |  | 
11 | CCOC(=O)C1(C)CCC2(C)CCC3(C)C4=CC=C5C(=CC(=O)C(O)=C5C)C4(C)CCC3(C)C2C1 (centres unmarked) [CA18] |  |  |  | ability to induce melanoma cell death, in words (SW1 cells; SW1 cells, compared with celastrol or other derivatives): not that efficient in the SW1 melanoma cells compared to CA19
12 | CC1=C(O)C(=O)C=C2C1=CC=C1C2(C)CCC2(C)C3CC(C)(C(=O)N4CCN(C)CC4)CCC3(C)CCC12C (centres unmarked) [CA14] |  | inactive | inactive | 
13 | CNC(=O)C1(C)CCC2(C)CCC3(C)C4=CC=C5C(=CC(=O)C(O)=C5C)C4(C)CCC3(C)C2C1 (centres unmarked) [CA13] |  | inactive | inactive | 
14 | CC1=C(O)C(=O)C=C2C1=CC=C1C2(C)CCC2(C)C3CC(C)(C(=O)NCc4cccnc4)CCC3(C)CCC12C (centres unmarked) [CA03] | active | inactive | Inactive | 
15 | CC1=C(O)C(=O)C=C2C1=CC=C1C2(C)CCC2(C)C3CC(C)(C(=O)N4CCCC4)CCC3(C)CCC12C (centres unmarked) [CA06] | active |  |  | 
16 | COC(=O)[C@]1(C)CC[C@]2(C)CC[C@]3(C)C4=CC=C5C(=CC(=O)C(O)=C5C)[C@]4(C)CC[C@@]3(C)[C@@H]2C1 [Pristimerin, pristimerin, reference compound] |  |  |  | EC50 (SW1 cells; Mus musculus, numeric EC50 cells of the column, read-out: Activity or EC50 (μM) in SW1 cells): < 0.1 µM
